Where two headings read alike, the source gives them in different places.
Assays:
[1] = target: T1, Rat recombinant PDE10A (rPDE10A2) (Rattus norvegicus, UniProt Q9QYJ6); test: In vitro assay PDE10A (SPA, 3H-cAMP); assay type: biochemical; conditions: pIC50 corresponds to the -log IC50 expressed in mol/L; for IC50: read-out: PDE10A2 pIC50 (converted)
T1 construct: made in house; host or cells: Sf9 insect cells, baculovirus
T1 sequence (Q9QYJ6 1-794): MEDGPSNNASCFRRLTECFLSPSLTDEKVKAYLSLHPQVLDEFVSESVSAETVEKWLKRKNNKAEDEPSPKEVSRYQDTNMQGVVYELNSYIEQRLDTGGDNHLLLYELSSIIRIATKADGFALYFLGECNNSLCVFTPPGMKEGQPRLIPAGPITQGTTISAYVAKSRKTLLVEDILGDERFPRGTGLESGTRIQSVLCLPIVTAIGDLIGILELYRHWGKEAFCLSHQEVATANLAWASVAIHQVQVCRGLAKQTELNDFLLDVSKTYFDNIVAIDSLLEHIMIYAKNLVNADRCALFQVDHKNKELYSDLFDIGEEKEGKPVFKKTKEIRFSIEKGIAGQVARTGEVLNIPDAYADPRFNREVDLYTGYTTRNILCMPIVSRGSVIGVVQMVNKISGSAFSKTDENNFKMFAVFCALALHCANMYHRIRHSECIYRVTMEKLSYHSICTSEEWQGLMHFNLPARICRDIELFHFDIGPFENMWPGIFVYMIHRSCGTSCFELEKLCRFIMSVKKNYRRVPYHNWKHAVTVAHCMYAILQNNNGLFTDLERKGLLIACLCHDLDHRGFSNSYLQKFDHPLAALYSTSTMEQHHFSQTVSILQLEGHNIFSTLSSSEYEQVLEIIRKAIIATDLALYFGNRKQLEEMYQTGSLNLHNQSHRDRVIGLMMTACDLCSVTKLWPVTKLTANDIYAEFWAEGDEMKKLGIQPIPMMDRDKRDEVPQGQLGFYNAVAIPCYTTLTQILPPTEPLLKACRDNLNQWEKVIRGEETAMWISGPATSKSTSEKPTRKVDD
Protocol: Rat recombinant PDE10A (rPDE10A2) was expressed in Sf9 cells using a recombinant rPDE10A baculovirus construct. Cells were harvested after 48 h of infection and the rPDE10A protein was purified by metal chelate chromatography on Ni-sepharose 6FF. Tested compounds were dissolved and diluted in 100% DMSO to a concentration 100 fold of the final concentration in the assay. Compound dilutions (0.4 μl) were added in 384 well plates to 20 μl of incubation buffer (50 mM Tris pH 7.8, 8.3 mM MgCl2, 1.7 mM EGTA). 10 μl of rPDE10A enzyme in incubation buffer was added and the reaction was started by addition of 10 μl substrate to a final concentration of 60 nM cAMP and 0.008 μCi ^3H-cAMP. The reaction was incubated for 60 min. at RT. […] After sedimentation of the beads during 30 min. the radioactivity was measured in a Perkin Elmer Topcount scintillation counter and results were expressed as cpm. For blank values the enzyme was omitted from the reaction and replaced by incubation buffer. Control values were obtained by addition of a final concentration of 1% DMSO instead of compound. The same assay principle is applied for the measurement of the affinity of the compound for other members of the PDE family with appropriate modifications in incubation buffer, substrate concentration, incubation time and stop solution.

[2] = system: apomorphine-induced stereotypy; test: Apomorphine-induced stereotypy in rats (APO); assay type: in vivo; conditions: Rattus norvegicus
Protocol: Apomorphine-Induced Stereotypy in Rats (APO)
Apomorphine (1.0 mg/kg, i.v.)-induced stereotypy (compulsive sniffing, licking, chewing) was scored every 5 min. over the first hour after injection of apomorphine, following a 1 hour interval pre-treatment with the test compound. The score system was: (3) pronounced, (2) moderate, (1) slight, and (O) absent.

[3] = system: PCP-induced hyperlocomotion; test: PCP-induced hyperlocomotion in rats (PCP); assay type: in vivo; conditions: Rattus norvegicus
PDE10 = target: T2, PDE10 (Rattus norvegicus, UniProt Q9QYJ6); test: PDE10 occupancy ([3H]-MP-10, striatum); assay type: in vivo; conditions: for ED50 / receptor occupancy at 10 mg/kg: rat; for ED50: occupancy, read-out: Occ. ED50; for receptor occupancy at 10 mg/kg: 1 h, read-out: % occ. printed under Occ. ED50 >10
T2 construct: from tissue; host or cells: rat brain sections, striatum (ex vivo autoradiography after in vivo dosing)
T2 sequence (Q9QYJ6 1-794): T1 sequence (Q9QYJ6 1-794)
Protocol: Dose-response or single dose experiments were performed to measure PDE10 occupancy 1 hour after subcutaneous (s.c.) or oral (p.o.) administration. Male Wistar rats (200 g) were treated by s.c. or p.o. administration of various PDE10 inhibitors. The PDE10 radioligand [^3H]-MP-10 (10 μCi/animal) was injected intravenously (i.v.) 30 minutes before sacrifice. Brains were immediately removed from the skull and rapidly frozen. Twenty μm-thick brain sections were cut using a cryostat-microtome, thaw-mounted on microscope slides and loaded in a β-imager to quantify PDE10 occupancy in the striatum.

[4] = po, * compound was not soluble and was tested orally as a suspension, read-out: APO ED50
[5] = not active at 2.5 or at 10 mg/kg, not further tested, read-out: APO ED50 (not active at threshold dose)

Row | Structure (SMILES) | IC50 [1] [µM] | % Occ. at 10 mg/kg (PDE10; administered s.c.) [%] | ED50 ([2]; read-out: APO ED50) [mg/kg] | ED50 [2, 5] [mg/kg] | other results
1 | COCCn1cc(-c2c(C3CC3)nc3c(N4CCOCC4)nccn23)cn1 [compound 53] |  |  | 5 |  | PDE10A2 pIC50 [1]: 7.27; ED50 [3]: ≤ 40 mg/kg
2 | Cc1nc2c(N3CCOCC3)nccn2c1-c1cnc(CC(C)C)s1 [compound 42, 3-(2-Isobutyl-thiazol-5-yl)-2-methyl-8-morpholin-4-yl-imidazo[1,2-a]pyrazine] |  | 59 | 5 |  | 
3 | COCCc1ccc(-c2c(OC)nc3c(N4CCOCC4)nccn23)cn1 [compound 15, 2-Methoxy-3-[6-(2-methoxy-ethyl)-pyridin-3-yl]-8-morpholin-4-yl-imidazo[1,2-a]pyrazine] |  |  | 1.2 |  | ED50 (PDE10; sc, administered s.c.): 1.5 mg/kg
4 | COCCn1cc(-c2c(C)nc3c(-c4cccnc4)nccn23)cn1 [compound 135] |  |  |  |  | PDE10A2 pIC50 [1]: 6.25; receptor occupancy at 10 mg/kg (PDE10; po): 29%; ED50 (PDE10; po, administered p.o. (a)): > 10 mg/kg
5 | Cc1nc2c(N3CCOCC3)nccn2c1-c1ccc(C2CC2)nc1 [compound 28, 3-(6-Cyclopropyl-pyridin-3-yl)-2-methyl-8-morpholin-4-yl-imidazo[1,2-a]pyrazine] |  |  |  |  | receptor occupancy at 10 mg/kg (PDE10; sc): 31%; ED50 (PDE10; sc, administered s.c.): > 10 mg/kg; ED50 [2, 4]: 1.2 mg/kg
6 | COC(C)(C)Cn1cc(-c2c(C3CC3)nc3c(-c4ccncc4)nccn23)cn1 [compound 50] | 0.0479 | 72 | 5 |  | 
7 | COCCc1ccc(-c2c(C)nc3c(-c4ccncc4)nccn23)cn1 [compound 8, 3-[6-(2-Methoxy-ethyl)-pyridin-3-yl]-2-methyl-8-pyridin-4-yl-imidazo[1,2-a]pyrazine] |  |  | 1.2 |  | ED50 (PDE10; sc, administered s.c.): 2.6 mg/kg
8 | COC(C)(C)Cn1cc(-c2c(C3CC3)nc3c(N4CCOCC4)nccn23)cn1 [compound 48] | 0.0331 | 53 | 3.1 |  | 
9 | COCCc1ccc(-c2c(C(F)(F)F)nc3c(N4CCOCC4)nccn23)cn1 [compound 12, 3-[6-(2-Methoxy-ethyl)-pyridin-3-yl]-8-morpholin-4-yl-2-trifluoromethyl-imidazo[1,2-a]pyrazine] |  |  | ≤ 2.5 |  | receptor occupancy at 10 mg/kg (PDE10; sc): 22%; ED50 (PDE10; sc, administered s.c.): > 10 mg/kg
10 | COCCn1cc(-c2c(C3CC3)nc3c(-c4ccncc4)nccn23)cn1 [compound 51] | 0.0501 | 61 | 1.2 |  | 
11 | COC(C)(C)c1ccc(-c2c(C)nc3c(N4CCOCC4)nccn23)cn1 [compound 30, 3-[6-(1-Methoxy-1-methyl-ethyl)-pyridin-3-yl]-2-methyl-8-morpholin-4-yl-imidazo[1,2-a]pyrazine] | 0.107 |  | 1.2 |  | ED50 (PDE10; sc, administered s.c.): 3.4 mg/kg
12 | Cc1nc2c(N3CCOCC3)nccn2c1-c1cnn(C(C)C)c1 [compound 81] |  |  |  | > 2.5 | PDE10A2 pIC50 [1]: 6.95
13 | COC[C@@H](C)n1cc(-c2c(C)nc3c(N4CCOCC4)nccn23)cn1 [compound 110] | 0.214 |  | 3.1 |  | 
14 | Cc1nc2c(N3CCOCC3)nccn2c1-c1cnn(CC2CCOCC2)c1 [compound 89] | 0.135 |  | ≤ 10 |  | 
15 | COC(C)(C)CCc1ccc(-c2c(C)nc3c(N4CCOCC4)nccn23)cn1 [compound 29, 3-[6-(3-Methoxy-3-methyl-butyl)-pyridin-3-yl]-2-methyl-8-morpholin-4-yl-imidazo[1,2-a]pyrazine] | 0.219 |  | 1.2 |  | 
16 | COCCCn1cc(-c2c(C)nc3c(N4CCOCC4)nccn23)cn1 [compound 68] | 0.0871 |  | 3.1 |  | 
17 | COCCCn1cc(-c2c(C)nc3c(-c4ccncc4)nccn23)cn1 [compound 102] | 0.166 |  | 5 |  | 
18 | Cc1nc2c(N3CCOCC3)nccn2c1-c1ccc(N2CCOCC2)nc1 [compound 4, 2-Methyl-8-morpholin-4-yl-3-(6-morpholin-4-yl-pyridin-3-yl)-imidazo[1,2-a]pyrazine] | 0.141 | 28 | 3.1 |  | 

Continued, in another order:

Row | IC50 [1] [µM] | % Occ. at 10 mg/kg (PDE10; administered s.c.) [%] | Structure (SMILES) | ED50 ([2]; read-out: APO ED50) [mg/kg] | ED50 [2, 5] [mg/kg] | other results
19 | 0.02 |  | FC(F)(F)Cn1cc(-c2c(C3CC3)nc3c(-c4ccncc4)nccn23)cn1 [compound 45] |  |  | % Occ. at 10 mg/kg (PDE10; administered p.o. (a)): 53^a %; ED50 [2, 4]: 3.1 mg/kg
20 | 0.0251 | 41 | FC(F)(F)Cn1cc(-c2c(C3CC3)nc3c(N4CCOCC4)nccn23)cn1 [compound 46] |  |  | ED50 [2, 4]: 5 mg/kg
21 |  | 10 | COCCn1cc(-c2c(C)nc3c(N4CCCC4)nccn23)cn1 [compound 130] |  | > 2.5 | PDE10A2 pIC50 [1]: 6.3
22 | 0.251 | 11 | Cc1nc2c(N3CCOCC3)nccn2c1-c1ccnc(OC(C)C)c1 [compound 113] |  | > 2.5 | 
23 | 0.0851 | 55 | Cc1nc2c(-c3ccncc3)nccn2c1-c1cnn(CC(F)(F)F)c1 [compound 67] |  |  | ED50 [2, 4]: 3.1 mg/kg
24 | 0.141 |  | COc1nc2c(N3CCOCC3)nccn2c1-c1ccc(CC(C)(C)OC)nc1 [compound 95] |  | > 2.5 | 
25 |  | 0 | COCCn1cc(-c2c(C(F)(F)F)nc3c(N4CCOCC4)nccn23)cn1 [compound 118] |  | > 2.5 | PDE10A2 pIC50 [1]: 6.51
26 | 0.263 | 52 | COCCn1cc(-c2c(C)nc3c(-c4ccncc4)nccn23)cn1 [compound 34, 3-[1-(2-Methoxy-ethyl)-1H-pyrazol-4-yl]-2-methyl-8-pyridin-4-yl-imidazo[1,2-a]pyrazine] |  |  | ED50 [2, 4]: 1.2 mg/kg
27 | 0.126 |  | c1cn2c(-c3ccc(N4CCNCC4)nc3)c(C3CC3)nc2c(N2CCOCC2)n1 [compound 87] |  | > 2.5 | 
28 | 0.0955 |  | CCC(COC)n1cc(-c2c(C)nc3c(N4CCOCC4)nccn23)cn1 (single isomer, unassigned) [compound 74] |  | > 2.5 | 
29 | 0.575 |  | COCCc1ccc(-c2cnc3c(N4CCOCC4)nccn23)cn1 [compound 136] |  | > 2.5 | 
30 | 0.0977 |  | Cc1nc2c(N3CCOCC3)nccn2c1-c1ccnc(NC(C)C)c1 [compound 22, Isopropyl-[4-(2-methyl-8-morpholin-4-yl-imidazo[1,2-a]pyrazin-3-yl)-pyridin-2-yl]-amine] |  | > 2.5 | 
31 | 0.38 |  | Cc1nc2c(N3CCOCC3)nccn2c1-c1ccc(OCC(F)(F)F)nc1 [compound 122] |  | > 2.5 | 
32 | 0.275 |  | COCCc1ncc(-c2c(C)nc3c(N4CCOCC4)nccn23)cc1F [compound 17, 3-[5-Fluoro-6-(2-methoxy-ethyl)-pyridin-3-yl]-2-methyl-8-morpholin-4-yl-imidazo[1,2-a]pyrazine] |  | > 2.5 | 
33 | 0.0832 |  | c1cn2c(-c3ccc(N4CCOCC4)nc3)c(C3CC3)nc2c(N2CCOCC2)n1 [compound 63] |  | > 2.5 | 
